In US20100048411A1, “SUBSTRATE FOR THE GROWTH OF CULTURED CELLS IN THREE DIMENSIONS” (REINNERVATE LIMITED, priority 2006, published 2010):

Key:
Assay type in all cases: cell-based, human
[1] = tested on: HepG2 cells; experiment: MTT viable cell number of HepG2 cells challenged with methotrexate on 2-D and 3-D substrates
Procedure: (§1) The human hepatic carcinoma cell line, HepG2, was obtained from the American Type Culture Collection (ATCC). HepG2 cells were cultured at 37° C. in 5% CO2 in growth medium (Dulbecco's modified Eagle medium (D-MEM, Gibco/BRL) supplemented with 10% (v/v) fetal calf serum (FBS, Gibco/BRL), 100 μg.mL^−1 penicillin and 10 μg.mL^−1 streptomycin (Gibco/BRL)). Cells were passaged every 5-7 days. Confluent cultures of cells were washed with PBS, detached using trypsin/EDTA solution and cell number determined using a hemocytometer. Suspensions of HepG2 cells were then seeded at equal densities either directly into wells of a standard 6-welled plate (Nunc) or into modified well-inserts mounted with the polymer and located in wells of a 6-well plate. Cultures were maintained in growth medium which was changed every 3-4 days or as required.
The number of viable cells was determined using a commercially available calorimetric assay (Promega) based on Mosmann's original method for measuring cell activity involving the conversion of a tetrazolium salt into a blue formazan product detectable by a spectrophotometer (570 nm). The assay was performed according to the manufacturer's instructions on HepG2 cells cultured on 2-D and 3-D substrates for various periods under alternative growth conditions.
(§2) Cells were seeded on 2-D and 3-D surfaces in triplicate and left to settle and adhere for 24 hours. […] Cells were subsequently incubated for 1, 3, 7 or 10 days, after which cultures were sampled and assayed for cell number/viability and levels of albumin and transglutaminase were determined.

[2] = tested on: HepG2 cells; experiment: albumin secretion of HepG2 cells challenged with methotrexate
Procedure: as §1, §2
The production of albumin is often used as an indicator of hepatocyte metabolic activity. Levels of albumin were determined using a commercially available kit (Bioassay systems) based on an established method that utilizes bromocresol green which forms a coloured complex specifically with albumin that is detectable at 620 nm. Known quantities of human albumin were used to establish the standard curve. Specific levels of albumin secretion were normalized to total protein levels (as determined by a standard Bradford assay).

[3] = tested on: HepG2 cells; experiment: transglutaminase assay of HepG2 cells challenged with methotrexate
Procedure: as §1, §2
The leakage of this enzyme is often used as a marker for in vitro toxicity testing and its presence indicates damage to cell membranes. […] The level of transglutaminase was analysed by means of a quantitative enzymatic assay (Sigma, UK) as previously described.

[4] = tested on: HepG2 cells; experiment: SEM and TEM morphology of HepG2 cells challenged with methotrexate
Procedure: Cells were seeded on 2-D and 3-D surfaces in triplicate and left to settle and adhere for 24 hours. The medium was then changed and replaced with medium containing different concentrations of MTX (no MTX (vehicle alone, control), 8 μM, 31 μM, and 125 μM). Cells were subsequently incubated for 1, 3, 7 or 10 days, after which cultures were sampled and assayed for cell number/viability and levels of albumin and transglutaminase were determined.
In preparation for SEM, cells grown on 2-D or 3-D substrates were fixed in 2% paraformaldehyde and 2.5% glutaraldehyde in Sorenson's phosphate buffer for 1 hour at room temperature. Samples were then rinsed in 0.1M phosphate buffer and immersed in 1% OsO4 (aq.) solution for 1 hour, then dehydrated in 50%, 70%, 95% and 100% ethanol for 5 minutes, four times for each respective ethanol change. Samples of fixed 2-D and 3-D cultures were then cut into smaller pieces (approximately 25 mm^2), mounted on specimen holders and dried from CO2 at 38° C. at 1200 psi. The samples were then sputter coated with a 7 nm layer of chromium and examined using a Hitachi S5200 SEM.
For TEM analysis, cells grown on 3-D substrates were fixed and treated as described above for SEM. However, subsequent to dehydration and being cut into small pieces, samples were embedded in resin (Araldite CY212, Agar Scientific) for 1 hour at 37° C. and then placed into pyramidal moulds at 60° C. overnight. For the preparation of cells grown on 2-D surfaces, cultures were fixed in 2% paraformaldehyde and 2.5% glutaraldehyde in Sorenson's phosphate buffer for 1 hour at room temperature. Cells were then scrapped from tissue culture plastic and pelleted at 15,000 rpm for 10 min. Pelleted cells were subsequently rinsed in 0.1M phosphate buffer and immersed in 1% OsO4 (aq.) solution for 1 hour, then dehydrated in 50%, 70%, 95% and 100% ethanol for 5 min, for times for each respective ethanol change. The dehydrated cell pellets were then soaked in resin (Araldite CY212) for 60 min at 37° C. […]

albumin secretion (metabolic activity) ([2]; cells cultured on scaffolds (3-D), 15.6 μM MTX): did begin to reduce albumin secretion
albumin secretion (metabolic activity) ([2]; cells grown in 2-D, 8 μM MTX): sensitive
SMILES: CN(Cc1cnc2nc(N)nc(N)c2n1)c1ccc(C(=O)N[C@@H](CCC(=O)O)C(=O)O)cc1 [MTX, methotrexate]
cell viability (MTT absorbance) ([1]; 3-D cultures, 62 μM MTX, compared to control values): significant decrease in absorbance levels
cell viability (MTT absorbance) ([1]; HepG2 monolayers (2-D), 15 μM MTX, after 24 hours): gradual increase of absorbance
cell viability (MTT absorbance) ([1]; cells on 2-D surfaces, increasing MTX concentrations): visibly reduced
cell viability (MTT absorbance) ([1]; monolayers (2-D), 7 days, 125 μM MTX): sharp decrease in absorbance levels
albumin secretion (metabolic activity) ([2]; cells grown in 3-D, 8 μM MTX): did not significantly influence albumin secretion
transglutaminase levels ([3]; 2-D cultures, 31 μM MTX and above, versus 3-D culture): significantly higher levels of transglutaminase
transglutaminase levels ([3]; 3-D cultures, increasing concentration of MTX): did not cause a significant increase in transglutaminase levels
ultra-structure (TEM) ([4]; 2-D cultures, 8 μM MTX): areas of cellular necrosis were also evident
ultra-structure (TEM) ([4]; 2-D cultures, high levels of MTX): most cells became necrotic
ultra-structure (TEM) ([4]; 3-D culture, 125 μM MTX): the nuclear membrane had an irregular morphology
